Experiment [1] deals with T1, Prostaglandin G/H synthase 1 (Ovis aries, UniProt P05979).
T1 sequence (P05979 whole entry): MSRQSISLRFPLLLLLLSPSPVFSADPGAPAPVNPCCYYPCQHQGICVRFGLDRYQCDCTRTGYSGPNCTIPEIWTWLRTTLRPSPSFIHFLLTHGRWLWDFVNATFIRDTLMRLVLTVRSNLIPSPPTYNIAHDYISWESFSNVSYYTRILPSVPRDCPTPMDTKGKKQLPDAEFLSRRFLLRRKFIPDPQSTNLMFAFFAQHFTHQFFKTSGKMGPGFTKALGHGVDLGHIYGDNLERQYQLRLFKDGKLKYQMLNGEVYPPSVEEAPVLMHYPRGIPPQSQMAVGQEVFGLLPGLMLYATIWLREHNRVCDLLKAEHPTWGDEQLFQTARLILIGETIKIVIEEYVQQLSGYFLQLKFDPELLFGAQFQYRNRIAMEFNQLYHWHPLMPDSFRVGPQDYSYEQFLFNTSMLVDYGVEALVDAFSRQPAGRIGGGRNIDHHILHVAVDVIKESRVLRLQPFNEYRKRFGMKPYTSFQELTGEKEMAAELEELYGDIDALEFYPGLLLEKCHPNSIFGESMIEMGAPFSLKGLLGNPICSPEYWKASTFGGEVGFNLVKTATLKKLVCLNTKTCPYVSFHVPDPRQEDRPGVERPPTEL
Briefly: Inhibition of ovine COX1 pre-incubated for 15 mins followed by addition of heme and fluorometric substrate and further incubated for 15 mins in presence of arachidonic acid by fluorescence based assay.

Experiment [2] deals with T2, Prostaglandin G/H synthase 2 (Homo sapiens, UniProt P35354).
T2 sequence (P35354 whole entry): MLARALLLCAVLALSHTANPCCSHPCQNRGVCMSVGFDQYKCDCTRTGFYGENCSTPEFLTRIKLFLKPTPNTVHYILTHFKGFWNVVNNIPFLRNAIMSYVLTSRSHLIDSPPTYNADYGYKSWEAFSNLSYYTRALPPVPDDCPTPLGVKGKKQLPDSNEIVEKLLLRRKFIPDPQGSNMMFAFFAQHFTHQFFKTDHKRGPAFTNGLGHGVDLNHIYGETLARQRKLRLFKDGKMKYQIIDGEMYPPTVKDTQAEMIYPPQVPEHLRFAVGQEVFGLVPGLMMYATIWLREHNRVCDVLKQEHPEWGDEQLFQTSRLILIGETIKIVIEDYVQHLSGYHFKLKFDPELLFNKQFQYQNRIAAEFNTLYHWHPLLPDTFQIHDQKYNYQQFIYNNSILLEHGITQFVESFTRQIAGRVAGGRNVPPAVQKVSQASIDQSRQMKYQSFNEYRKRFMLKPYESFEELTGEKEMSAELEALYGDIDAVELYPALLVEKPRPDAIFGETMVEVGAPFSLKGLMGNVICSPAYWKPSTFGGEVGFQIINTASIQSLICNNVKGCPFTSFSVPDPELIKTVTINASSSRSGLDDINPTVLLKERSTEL
Briefly: Inhibition of human recombinant COX2 pre-incubated for 15 mins followed by addition of heme and fluorometric substrate and further incubated for 15 mins in presence of arachidonic acid by fluorescence based assay.

pIC50: −log10 of the molar value.

A word on the pIC50: it is the negative decadic logarithm of the IC50, by convention in mol/L.

In the case of `CCO[C@@]1(c2ccc(O)c(O)c2)Oc2ccc(CCO)cc2O[C@@H]1O`, the IC50 entry in experiment [1] is listed as “Not Active”. In experiment [2], the pIC50 was 5.60.

Consider `CCOC1(c2ccc(O)c(O)c2)Oc2ccc(CCO)cc2OC1O` (stereo unspecified), for which the IC50 result in experiment [1] is listed as “Not Active”. In addition, the pIC50 in experiment [2] was 5.22.

With `CO[C@@]1(c2ccc(O)c(O)c2)Oc2ccc(CCO)cc2O[C@@H]1O`, the IC50 result in experiment [1] is recorded as “Not Active”. The negative-log IC50 (pIC50) in experiment [2] was 5.08.

Regarding `CO[C@]1(c2ccc(O)c(O)c2)Oc2ccc(CCO)cc2O[C@H]1O`, in experiment [1], the IC50 entry is on record as “Not Active”. In addition, in experiment [2], the pIC50 is 5.22.

For the compound `CCO[C@@]1(c2ccc(O)c(O)c2)Oc2cc(CCO)ccc2O[C@@H]1O`, the IC50 entry in experiment [1] was “Not Active”. For the same compound, the pIC50 in experiment [2] was 4.86.

As for `CCO[C@]1(c2ccc(O)c(O)c2)Oc2cc(CCO)ccc2O[C@H]1O`, the IC50 result in experiment [1] was “Not Active”. In addition, the pIC50 in experiment [2] is 5.07.

For the compound `CO[C@@]1(c2ccc(O)c(O)c2)Oc2cc(CCO)ccc2O[C@@H]1O`, in experiment [1], the IC50 result was “Not Active”. Moreover, in experiment [2], the pIC50 was 4.75.

`CO[C@]1(c2ccc(O)c(O)c2)Oc2cc(CCO)ccc2O[C@H]1O`: in experiment [1], the IC50 entry was “Not Active”. In addition, the pIC50 in experiment [2] is 5.01.

On to `CC(=O)NCCc1ccc2c(c1)O[C@H](NC(C)=O)[C@@H](c1ccc(O)c(O)c1)O2`, for which the IC50 entry in experiment [1] was “Not Active”. Further, in experiment [2], the pIC50 is 5.59.

With `CC(=O)NCCc1ccc2c(c1)O[C@H](c1ccc(O)c(O)c1)[C@@H](NC(C)=O)O2` (relative stereo), in experiment [1], the IC50 result is recorded as “Not Active”. Further, the pIC50 in experiment [2] was 5.44.

Turning to `CC(=O)N[C@H]1Oc2cc(CCO)ccc2O[C@@H]1c1ccc(O)c(O)c1` (relative stereo), the IC50 result in experiment [1] is recorded as “Not Active”. Also, the pIC50 in experiment [2] is 5.89.

For the compound `CC(=O)N[C@H]1Oc2ccc(CCO)cc2O[C@@H]1c1ccc(O)c(O)c1` (relative stereo), in experiment [1], the IC50 entry is given as “Not Active”. Also, the pIC50 in experiment [2] is 5.60.

On to `CC(=O)/N=C/Cc1ccc2c(c1)O[C@H](c1ccc(O)c(O)c1)[C@@H](NC(C)=O)O2` (relative stereo), for which the pIC50 in experiment [1] (read-out: IC50) was 4.86; in experiment [2] it was 5.57.

Values taken from ChEMBL document CHEMBL3425477, “Compounds from the insect Blaps japanensis with COX-1 and COX-2 inhibitory activities” (Bioorg Med Chem Lett, 2015).
